# Read-outs that look alike come from different tables or passages of the source.
# Experiments:
# bile canaliculi = assay: Disruption of canaliculi, CDFDA staining (Example 3); type: cell-based, human; details: 5 uM CDFDA with 10 uM LatA, 20 min
# Method: In the second method, the cultures were exposed to buffer containing latranculin A (LatA). The LatA functions to disrupt microfilament organization, a key step in tight junction formation, which allows bile present in the canaliculi to escape. Cells were first washed twice in HBSS buffer with Ca+. Cells were then incubated with 5 uM CDFDA in HBSS buffer with Ca+ and 10 uM LatA for 20 min. Cells were then washed two times in HBSS buffer with Ca+.
# in vitro [1] = details: hepatocytes
# Method: (§1) The single well method of assessing biliary clearance of the invention was used.
# (§2) A coculture was exposed to each tested compound in culture media at the indicated concentration for 20 minutes. The media was then removed (collection #1) and stored for analysis of remaining compound. The cultures were washed twice with buffer solution (collections #2 and #3) and each wash solution was stored for analysis of remaining taurcholate. […] This releases taurcholate accumulated in the bile of the canaliculi. At the end of the incubation period the culture media was collected (collection #4). The cells were then exposed to deionized water which functions to disrupt the cellular membrane and release the compound accumulated in the cellular compartment (collection #5). Because any compound present in the canaliculi was already collected in collection #4, collection #5 contains any compound present in the cell but not including any present in the canaliculi.
# (§3) In teach figure the measured amount of compound in bile and the measured amount of compound in the cytoplasm are presented together as two parts of a single bar on the left side of the figure. The measured value for the bile is also shown as a bar on the right side of the figure. Comparing the height of the right bar (bile) to the height of the composite left bar (total of cytoplasm+bile) allows visulation of the portion of the compound that accumulated in the bile. […] Equation 2 was used to calculate the BEI for each compound in this system. The data were used to calculate the Biliary Clearance (Equation 1) and BEI (Equation 2) for each tested compound.
# in vitro [2] = details: rat, hepatocytes
# Method: as §1
# (§4) The media was then removed (collection #1) and stored for analysis of remaining compound. […] At the end of the incubation period the culture media was collected (collection #4). The cells were then exposed to deionized water which functions to disrupt the cellular membrane and release the compound accumulated in the cellular compartment (collection #5). Because any compound present in the canaliculi was already collected in collection #4, collection #5 contains any compound present in the cell but not including any present in the canaliculi. […] The data is presented in FIG. 9-13 using the same format as used in FIGS. 4-8.
# (§5) Equation 2 was used to calculate the BEI for each compound in this system.
# [3] = tested on: cryopreserved human hepatocytes in sandwich culture; details: cited from earlier work
# [4] = tested on: cultured human hepatocytes; assay: in vitro
# Method: as §1, §2, §3
# cultured rat hepatocytes = assay: in vitro
# Method: as §1, §4, §5
# [5] = Lundquist (2014); cited from earlier work
# [6] = tested on: primary human hepatocytes grown in a hepatocyte-stromal cell coculture
# Method: Accumulation in the bile and accumulation in the cell were measured separately in a single well of a coculture plate. The measured values for bile accumulation and cell accumulation are shown as separately shaded portions of a single bar. The error bars represent a single standard deviation.
# FIG. 18 compares the results of three independent experiments measuring biliary uptake of pravastatin by primary human hepatocytes grown in a hepatocyte-stromal cell coculture. Accumulation in the bile and accumulation in the cell were measured separately in a single well of a coculture plate. The measured values for bile accumulation and cell accumulation are shown as separately shaded portions of a single bar. The error bars represent a single standard deviation.
# [7] = Bi et al. (2006), two culture method
smiles,measurement,setting,value
"C/C1=C/C(=O)O[C@@H]2C[C@@H](CC[C@H](C)/C=C\C=C\CC1)O[C@@](O)([C@@H]1CSC(=O)N1)C2 [LatA, latrunculin A]",CDA staining of canaliculi,bile canaliculi,no CDA staining was apparent
C[C@H]1O[C@@H](O[C@H]2[C@@H](O)C[C@H](O[C@H]3[C@@H](O)C[C@H](O[C@H]4CC[C@@]5(C)[C@H](CC[C@@H]6[C@@H]5C[C@@H](O)[C@]5(C)[C@@H](C7=CC(=O)OC7)CC[C@]65O)C4)O[C@@H]3C)O[C@@H]2C)C[C@H](O)[C@@H]1O [digoxin],microsomal CLint,in vitro [1]; human,0.4 µL/min/mg
same,microsomal CLint,in vitro [2],0.31 ± 0.02 µL/min/mg
same,Uptake Rate,[3]; [7],0.7-1.5 pmol/min/mg protein
C[C@]12CC[C@@H]3c4ccc(O)cc4CC[C@H]3[C@@H]1CC[C@@H]2O[C@@H]1O[C@H](C(=O)O)[C@@H](O)[C@H](O)[C@H]1O [estradiol-glucuronide],microsomal CLint,[4],0.3 µL/min/mg
same,"Rat In Vitro PK Intrinsic CLint, biliary","cultured rat hepatocytes; rat, hepatocytes",2.7 ± 0.1 μl/min/mg protein
same,Biliary Excretion Index (BEI),[3]; [7],37%
same,Uptake Rate,[3],2.2 pmol/min/mg protein
same,microsomal CLint,[3],1.8 µL/min/mg
CC[C@H](C)C(=O)O[C@H]1C[C@H](O)C=C2C=C[C@H](C)[C@H](CC[C@@H](O)C[C@@H](O)CC(=O)O)[C@H]21 [pravastatin],microsomal CLint,in vitro [1]; human,0.38 µL/min/mg
same,microsomal CLint,in vitro [2],0.29 ± 0.02 µL/min/mg
CC(C)c1nc(N(C)S(C)(=O)=O)nc(-c2ccc(F)cc2)c1/C=C/[C@@H](O)C[C@@H](O)CC(=O)O [rosuvastatin],microsomal CLint,in vitro [1]; human,6 µL/min/mg
same,microsomal CLint,in vitro [2],3.5 ± 0.3 µL/min/mg
same,Fold Difference,cultured rat hepatocytes; rat,0.6
same,Rat In Vivo PK In Vivo CLbiliary,[5],48.0 ± 10.8 mL/min/kg
same,Biliary Excretion Index (BEI),[3]; [7],43-58%
same,Uptake Rate,[3]; [7],15-26 pmol/min/mg protein
"C[C@H](CCC(=O)NCCS(=O)(=O)O)[C@H]1CC[C@H]2[C@@H]3[C@H](O)C[C@@H]4C[C@H](O)CC[C@]4(C)[C@H]3C[C@H](O)[C@]12C [taurocholate, taurocholic acid]",microsomal CLint,in vitro [1],23 µL/min/mg
same,BEI,"cultured rat hepatocytes; rat hepatocyte coculture, compound 2 uM (pravastatin 5 uM), 20 min, latrunculin 5 uM 30 min",60%
same,Rat In Vitro PK Predicted CLbiliary,"cultured rat hepatocytes; scaled from Clint,bile with 200 mg protein/g liver and 40 g liver/kg",67.1 ± 4.8 mL/min/kg
same,"Bile accumulation, Mean",[6]; Exp. 1,541.90
same,"Bile accumulation, Mean",[6]; Exp. 2,556.08
same,"Bile accumulation, Mean",[6]; Exp. 3,543.31
